A word on the IC50: it is the concentration that gives 50% inhibition. The term inhibition denotes the change of the read-out against control, counted positive when it falls.

Here are results for three molecules from US5268282A, “Cyclic FR-900520 microbial biotransformation agent” (Merck & Co., Inc., priority 1992, dated 1993).

Entries after “also recorded” stand apart in the source; their conditions may differ.

The subject of data set [1] is splenic T-cells (mouse T lymphocytes). Nature of the data set: T-cell proliferation assay (ionomycin + PMA induced T-cell stimulation, tritiated thymidine uptake). It counts as cell-based, mouse (C57Bl/6). On the procedure: The principle of this assay is to measure the proliferation of mouse T lymphocytes stimulated with the combination of ionomycin plus PMA.
Cells were pelleted by centrifugation at 1500 rpm for 8 minutes. Contaminating red cells were removed by treating the pellet with ammonium chloride lysing buffer (GIBCO) for 2 minutes at 4° C. Cold medium was added and cells were again centrifuged at 1500 rpm for 8 minutes. T lymphocytes were then isolated by separation of the cell suspension on nylon wool columns as follows: Nylon wool columns were prepared by packing approximately 4 grams of washed and dried nylon wool into 20 ml plastic syringes. The columns were sterilized by autoclaving at 250° F. for 30 minutes. Nylon wool columns were wetted with warm (37° C.) culture medium and rinsed with the same medium. Washed spleen cells resuspended in warm medium were slowly applied to the nylon wool. The columns were then incubated in an upright position at 37° C. for 1 hour. Non-adherent T lymphocytes were eluted from the columns with warm culture medium and the cell suspensions were spun as above.
The cell suspension was immediately distributed into 96 well flat-bottom microculture plates (Costar) at 200 μl/well. […] Radioactivity of filter discs corresponding to individual wells was measured by standard liquid scintillation counting methods (Betacounter). Mean counts per minute of replicate wells were calculated and the results expressed as percent inhibition of tritiated thymidine uptake (proliferation) as follows: [formula]

Data set [2] can be described thus: Solubility (physical characteristics). The note with it: methanol. It counts as physicochemical.
For data set [3] the following is noted: immunosuppressant; EPO Publication No. 0184162; cited from earlier work.

With `CC[C@@H]1C=C2COC1(O)C[C@H](O)[C@@H](C)[C@@H](/C(C)=C/[C@@H]1CC[C@@H](O)[C@H](OC)C1)OC(=O)[C@@H]1CCCCN1C(=O)C(=O)[C@]1(O)O[C@H]([C@@H](OC)C[C@@H](C)C2)[C@@H](OC)C[C@H]1C` [Compound I], in data set [1] (50 units/ml recombinant IL2 added at the initiation of culture), the “Inhibition of T-cell proliferation upon addition of IL2” value is given as “reversed”. Besides, the IC50 in data set [1] (Mus musculus, T-cell, based on a series of 5 additional experiments, read-out: IC50, generally in the range of) lay in the range of 1.57 to 5.2 ng/mL. Moreover, the “immunosuppressant activity (inhibition of T-cell activation / T-cell proliferation assay)” value in data set [1] (result in words) is on record as “positive inhibition of T-cell activation; also recorded: positive immunosuppressive activity”. In addition, the Solubility entry in data set [2] is given as “Solubility in methanol”.
As to `C=CC[C@@H]1/C=C(\C)C[C@H](C)C[C@H](OC)[C@H]2O[C@@](O)(C(=O)C(=O)N3CCCC[C@H]3C(=O)O[C@H](/C(C)=C/[C@@H]3CC[C@@H](O)[C@H](OC)C3)[C@H](C)[C@@H](O)CC1=O)[C@H](C)C[C@@H]2OC` [FK-506], the “times more effective than cyclosporin (reputed)” value in data set [3] is given as 100 times.
As for `C=CCC1C=C(C)CC(C)CC(OC)C2OC(O)(C(=O)C(=O)N3CCCCC3C(=O)OC(C(C)=CC3CCC(O)C(OC)C3)C(C)C(O)CC1=O)C(C)CC2OC` (stereo not drawn) [FR 900506, reference compound], the inhibition at 0.01 µg/mL in data set [1] (Mus musculus, T-cell, read-out: inhibition by the standard) is 99%.
